Laboratory results reported in ChEMBL document CHEMBL1145498, “A systematic interaction map of validated kinase inhibitors with Ser/Thr kinases” (Proc Natl Acad Sci U S A, 2007).

What was measured:
[1] = target: Protein kinase C delta type (Homo sapiens, UniProt Q05655); test: Inhibition of PKCdelta
[2] = target: Tyrosine-protein kinase Fyn (Homo sapiens, UniProt P06241); test: Inhibition of Fyn
[3] = target: Protein kinase C alpha type (Homo sapiens, UniProt P17252); test: Inhibition of PKCalpha
[4] = Inhibition of Cdk4/cyclin D
Ephrin type-B receptor 3 = Ephrin type-B receptor 3 (Homo sapiens, UniProt P54753); test: Inhibition of EphB3
[5] = target: RAC-alpha serine/threonine-protein kinase (Homo sapiens, UniProt P31749); test: Inhibition of AKT
[6] = Inhibition of SGK
[7] = Inhibition of Cdk1/cyclin A
[8] = target: Mitogen-activated protein kinase 10 (Homo sapiens, UniProt P53779)
A-375 = test: Antiproliferative activity against human A375 cells; assay type: functional, cell-based
[9] = Inhibition of serum-stimulated Akt kinase phosphorylation in human A375 cells; assay type: cell-based; conditions: A-375
[10] = Inhibition of mouse CaM kinase 2
[11] = target: Vascular endothelial growth factor receptor 2 (Homo sapiens, UniProt P35968); test: Inhibition of KDR
[12] = target: T1, Myosin light chain kinase, smooth muscle (Homo sapiens, UniProt Q15746); test: Inhibition of myosin light chain kinase
[13] = target: Inhibitor of nuclear factor kappa-B kinase subunit beta (Homo sapiens, UniProt O14920); test: Inhibition of IKK-beta
[14] = Inhibition of Cdk5/p35
[15] = target: T2, Glycogen synthase kinase-3 beta (Homo sapiens, UniProt P49841); test: Binding affinity to GSK3-beta
[16] = target: T2, Glycogen synthase kinase-3 beta; test: Inhibition of GSK3-beta; conditions: read-out: IC50
[17] = target: Serine-protein kinase ATM (Homo sapiens, UniProt Q13315); test: Inhibition of ATM
[18] = target: Serine/threonine-protein kinase ATR (Homo sapiens, UniProt Q13535); test: Inhibition of ATR
[19] = target: T3, Protein kinase C epsilon type (Homo sapiens, UniProt Q02156); test: Inhibition of PKCepsilon
T3 sequence (Q02156 whole entry): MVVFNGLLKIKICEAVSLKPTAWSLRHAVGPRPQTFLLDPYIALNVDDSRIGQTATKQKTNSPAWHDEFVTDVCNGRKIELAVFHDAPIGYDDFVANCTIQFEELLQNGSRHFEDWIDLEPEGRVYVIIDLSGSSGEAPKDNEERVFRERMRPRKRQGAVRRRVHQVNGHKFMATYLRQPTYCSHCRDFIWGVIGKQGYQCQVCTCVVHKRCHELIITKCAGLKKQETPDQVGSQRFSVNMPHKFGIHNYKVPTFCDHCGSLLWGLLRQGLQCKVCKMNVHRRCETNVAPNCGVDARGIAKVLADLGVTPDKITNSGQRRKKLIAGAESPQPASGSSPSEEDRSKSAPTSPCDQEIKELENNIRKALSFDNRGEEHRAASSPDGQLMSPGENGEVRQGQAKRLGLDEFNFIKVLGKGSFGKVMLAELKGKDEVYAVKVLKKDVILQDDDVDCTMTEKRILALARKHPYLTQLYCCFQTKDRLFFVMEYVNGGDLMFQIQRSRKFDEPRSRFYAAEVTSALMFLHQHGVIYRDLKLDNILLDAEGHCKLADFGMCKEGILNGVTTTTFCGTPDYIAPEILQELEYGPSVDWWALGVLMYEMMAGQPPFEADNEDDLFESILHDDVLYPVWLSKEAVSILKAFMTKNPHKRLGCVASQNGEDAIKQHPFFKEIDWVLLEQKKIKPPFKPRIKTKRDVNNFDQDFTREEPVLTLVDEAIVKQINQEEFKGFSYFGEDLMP

[20] = target: Cyclin-dependent kinase 1 (Homo sapiens, UniProt P06493); test: Inhibition of Cdk1
[21] = target: Tyrosine-protein kinase Lck (Homo sapiens, UniProt P06239)
[22] = target: Epidermal growth factor receptor (Homo sapiens, UniProt P00533)
[23] = target: Calcium/calmodulin-dependent protein kinase type IV (Homo sapiens, UniProt Q16566); test: Inhibition of CaM-K4
[24] = Inhibition of CaM-K1
[25] = Inhibition of CaM-K2
[26] = target: Mitogen-activated protein kinase 1 (Homo sapiens, UniProt P28482); test: Inhibition of ERK2
[27] = target: T1, Myosin light chain kinase, smooth muscle; test: Binding affinity at MLCK
[28] = target: Dual specificity mitogen-activated protein kinase kinase 1 (Homo sapiens, UniProt Q02750)
[29] = target: Protein kinase C beta type (Homo sapiens, UniProt P05771); test: Inhibition of PKCbeta
[30] = target: Proto-oncogene tyrosine-protein kinase Src (Homo sapiens, UniProt P12931); test: Inhibition of Src; conditions: read-out: IC50
[31] = Inhibition Cdk1/cyclin E

T1 sequence (Q15746 whole entry): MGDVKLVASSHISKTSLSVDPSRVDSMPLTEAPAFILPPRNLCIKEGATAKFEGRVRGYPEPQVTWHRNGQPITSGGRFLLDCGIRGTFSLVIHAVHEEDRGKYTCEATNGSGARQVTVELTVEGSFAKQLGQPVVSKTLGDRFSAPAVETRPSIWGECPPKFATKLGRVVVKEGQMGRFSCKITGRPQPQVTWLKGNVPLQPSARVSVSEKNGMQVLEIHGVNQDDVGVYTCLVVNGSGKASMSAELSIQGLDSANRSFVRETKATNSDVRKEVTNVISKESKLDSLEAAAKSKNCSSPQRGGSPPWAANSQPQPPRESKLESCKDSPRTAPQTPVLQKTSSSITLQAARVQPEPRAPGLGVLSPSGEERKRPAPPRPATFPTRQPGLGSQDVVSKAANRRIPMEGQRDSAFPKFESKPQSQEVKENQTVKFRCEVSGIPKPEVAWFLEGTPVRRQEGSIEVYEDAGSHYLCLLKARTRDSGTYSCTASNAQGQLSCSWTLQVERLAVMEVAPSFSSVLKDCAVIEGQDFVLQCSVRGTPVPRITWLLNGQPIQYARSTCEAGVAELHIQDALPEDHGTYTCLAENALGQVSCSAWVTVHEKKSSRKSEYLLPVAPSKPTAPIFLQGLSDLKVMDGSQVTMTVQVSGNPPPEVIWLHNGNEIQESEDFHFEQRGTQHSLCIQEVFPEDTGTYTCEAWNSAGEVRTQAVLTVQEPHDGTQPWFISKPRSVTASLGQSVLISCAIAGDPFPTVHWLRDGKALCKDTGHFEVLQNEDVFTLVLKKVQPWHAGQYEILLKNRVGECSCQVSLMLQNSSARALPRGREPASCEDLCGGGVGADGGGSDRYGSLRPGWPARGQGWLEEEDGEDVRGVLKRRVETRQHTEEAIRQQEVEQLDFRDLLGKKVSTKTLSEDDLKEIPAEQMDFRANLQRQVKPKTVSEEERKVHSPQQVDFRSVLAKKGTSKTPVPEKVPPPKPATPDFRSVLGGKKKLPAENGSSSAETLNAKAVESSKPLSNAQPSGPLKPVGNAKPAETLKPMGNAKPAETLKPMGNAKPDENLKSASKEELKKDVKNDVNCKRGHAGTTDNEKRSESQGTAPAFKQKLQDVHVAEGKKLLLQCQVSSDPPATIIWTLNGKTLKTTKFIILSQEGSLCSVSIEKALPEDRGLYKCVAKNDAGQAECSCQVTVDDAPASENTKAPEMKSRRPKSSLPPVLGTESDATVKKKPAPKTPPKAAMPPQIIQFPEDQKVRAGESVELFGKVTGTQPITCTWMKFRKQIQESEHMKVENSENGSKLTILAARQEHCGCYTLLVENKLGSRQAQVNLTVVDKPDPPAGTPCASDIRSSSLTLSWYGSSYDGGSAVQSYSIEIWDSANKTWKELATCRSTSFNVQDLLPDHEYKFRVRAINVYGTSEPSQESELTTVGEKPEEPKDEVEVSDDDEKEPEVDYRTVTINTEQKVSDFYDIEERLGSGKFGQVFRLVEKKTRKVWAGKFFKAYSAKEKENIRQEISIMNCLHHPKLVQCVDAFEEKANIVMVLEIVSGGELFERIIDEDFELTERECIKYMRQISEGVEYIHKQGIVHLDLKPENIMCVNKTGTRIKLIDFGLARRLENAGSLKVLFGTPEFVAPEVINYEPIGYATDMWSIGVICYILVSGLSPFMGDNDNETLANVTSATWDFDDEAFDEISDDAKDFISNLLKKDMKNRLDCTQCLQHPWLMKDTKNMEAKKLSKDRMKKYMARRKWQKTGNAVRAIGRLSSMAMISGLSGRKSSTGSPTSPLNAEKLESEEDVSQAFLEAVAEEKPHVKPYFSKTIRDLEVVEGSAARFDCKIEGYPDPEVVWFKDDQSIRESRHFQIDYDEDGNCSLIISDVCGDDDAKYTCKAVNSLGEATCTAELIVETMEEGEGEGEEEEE
T2 sequence (P49841 whole entry): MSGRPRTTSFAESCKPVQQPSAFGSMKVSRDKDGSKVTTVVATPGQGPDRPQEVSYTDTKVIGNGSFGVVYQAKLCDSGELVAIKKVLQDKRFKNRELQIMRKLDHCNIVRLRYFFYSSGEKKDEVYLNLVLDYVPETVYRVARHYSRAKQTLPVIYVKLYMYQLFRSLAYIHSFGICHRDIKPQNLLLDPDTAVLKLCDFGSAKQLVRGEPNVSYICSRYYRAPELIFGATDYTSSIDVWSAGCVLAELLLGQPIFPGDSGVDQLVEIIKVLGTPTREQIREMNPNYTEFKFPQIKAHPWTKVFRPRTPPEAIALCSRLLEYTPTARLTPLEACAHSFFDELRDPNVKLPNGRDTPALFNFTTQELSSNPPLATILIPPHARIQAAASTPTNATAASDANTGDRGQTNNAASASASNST
Inhibitor of nuclear factor kappa-B kinase subunit beta, sequence (O14920 whole entry): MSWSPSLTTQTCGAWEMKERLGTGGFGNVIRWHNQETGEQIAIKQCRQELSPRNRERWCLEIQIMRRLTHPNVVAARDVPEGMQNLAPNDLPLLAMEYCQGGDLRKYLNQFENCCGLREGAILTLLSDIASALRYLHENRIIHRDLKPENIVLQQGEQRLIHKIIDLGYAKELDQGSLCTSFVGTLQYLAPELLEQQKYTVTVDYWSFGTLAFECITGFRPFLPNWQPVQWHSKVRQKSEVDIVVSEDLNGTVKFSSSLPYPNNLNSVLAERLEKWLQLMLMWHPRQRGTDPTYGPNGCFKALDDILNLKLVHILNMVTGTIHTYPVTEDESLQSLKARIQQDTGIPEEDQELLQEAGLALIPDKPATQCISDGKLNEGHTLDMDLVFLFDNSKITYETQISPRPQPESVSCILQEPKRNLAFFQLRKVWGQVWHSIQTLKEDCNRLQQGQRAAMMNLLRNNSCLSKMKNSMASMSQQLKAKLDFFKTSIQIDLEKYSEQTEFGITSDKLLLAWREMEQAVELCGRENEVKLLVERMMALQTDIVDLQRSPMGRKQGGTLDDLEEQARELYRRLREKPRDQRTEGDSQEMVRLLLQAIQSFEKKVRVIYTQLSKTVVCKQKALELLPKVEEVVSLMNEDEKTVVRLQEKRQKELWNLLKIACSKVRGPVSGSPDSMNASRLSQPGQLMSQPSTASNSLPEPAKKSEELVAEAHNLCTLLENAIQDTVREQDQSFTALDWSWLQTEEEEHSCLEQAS
Mitogen-activated protein kinase 10, sequence (P53779 whole entry): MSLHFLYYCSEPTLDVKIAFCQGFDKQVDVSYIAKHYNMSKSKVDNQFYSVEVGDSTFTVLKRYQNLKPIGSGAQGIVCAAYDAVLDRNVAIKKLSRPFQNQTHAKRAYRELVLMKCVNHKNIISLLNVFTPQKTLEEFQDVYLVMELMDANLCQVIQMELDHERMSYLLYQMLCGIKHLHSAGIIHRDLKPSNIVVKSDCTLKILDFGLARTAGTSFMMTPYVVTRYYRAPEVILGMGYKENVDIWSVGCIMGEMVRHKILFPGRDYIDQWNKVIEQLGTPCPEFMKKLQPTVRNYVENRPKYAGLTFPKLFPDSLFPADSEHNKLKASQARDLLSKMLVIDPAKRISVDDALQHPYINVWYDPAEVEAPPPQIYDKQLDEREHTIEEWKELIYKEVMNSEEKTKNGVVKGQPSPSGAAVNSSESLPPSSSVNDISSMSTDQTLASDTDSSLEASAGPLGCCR
Tyrosine-protein kinase Lck, sequence (P06239 whole entry): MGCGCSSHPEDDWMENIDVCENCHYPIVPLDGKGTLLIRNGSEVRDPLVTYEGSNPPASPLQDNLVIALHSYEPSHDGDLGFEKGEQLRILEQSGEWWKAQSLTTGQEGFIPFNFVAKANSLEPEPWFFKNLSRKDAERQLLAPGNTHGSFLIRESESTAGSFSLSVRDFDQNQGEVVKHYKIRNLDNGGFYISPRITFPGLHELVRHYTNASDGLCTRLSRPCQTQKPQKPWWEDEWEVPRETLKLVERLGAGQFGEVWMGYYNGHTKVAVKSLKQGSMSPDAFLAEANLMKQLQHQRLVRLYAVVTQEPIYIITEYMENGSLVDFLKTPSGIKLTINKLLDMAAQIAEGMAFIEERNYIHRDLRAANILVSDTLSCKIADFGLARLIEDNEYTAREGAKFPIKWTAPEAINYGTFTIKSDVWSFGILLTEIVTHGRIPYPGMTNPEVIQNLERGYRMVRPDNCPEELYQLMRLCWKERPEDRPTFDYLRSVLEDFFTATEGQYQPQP
Cyclin-dependent kinase 1, sequence (P06493 whole entry): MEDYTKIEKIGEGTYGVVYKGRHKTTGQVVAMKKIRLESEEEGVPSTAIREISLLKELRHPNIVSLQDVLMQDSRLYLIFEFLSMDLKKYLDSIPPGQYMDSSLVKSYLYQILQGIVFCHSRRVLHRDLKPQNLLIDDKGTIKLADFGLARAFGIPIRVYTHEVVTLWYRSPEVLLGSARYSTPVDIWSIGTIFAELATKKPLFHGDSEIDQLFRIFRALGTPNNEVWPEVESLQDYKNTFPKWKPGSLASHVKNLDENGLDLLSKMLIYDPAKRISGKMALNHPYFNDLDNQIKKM

## O=C1N=C(NCc2cccs2)S/C1=C/c1ccc2ncccc2c1
[1]
  Ki: 318 nM
[2]
  Ki: > 2000 nM
[3]
  Ki: > 2000 nM
[4]
  Ki: > 2000 nM
Ephrin type-B receptor 3
  Ki: > 2000 nM
[5]
  Ki: > 2000 nM
[6]
  Ki: 497 nM
[7]
  Ki: 110 nM

## Oc1c2ccccc2c2c3c(cccc13)N=N2 [SP-600125]
[8]
  IC50: 90 nM

## Oc1cccc(-c2nc(N3CCOCC3)c3sccc3n2)c1
A-375
  IC50: 580 nM
[9]
  IC50: < 3000 nM
[3]
  IC50: ≥ 3400 nM
[10]
  IC50: 370 nM
[11]
  IC50: ≥ 3400 nM

## O=S(=O)(c1cccc2cnccc12)N1CCCNCC1 [FASUDIL]
[12]
  IC50: 3600 nM

## NC(=O)Nc1sc(-c2ccccc2)cc1C(N)=O
[13]
  IC50: 13 nM

## CC(C)[C@H](CO)Nc1nc(Nc2cccc(Cl)c2)c2ncn(C(C)C)c2n1 [PURVALANOLA]
[14]
  IC50: 75 nM

## CC(C)n1cnc2c(Nc3cccc(Cl)c3)nc(NCCO)nc21
[15]
  Kd: 126 nM
[16]
  IC50: 30 nM

## NC(N)=S [THIOUREA]
[17]
  IC50: 200 nM
[18]
  IC50: 200 nM

## COCc1cc(O)c(O)c(O)c1-c1c(COC)cc(O)c(O)c1O
[19]
  IC50: 175 nM

## O=Nc1c(-c2c(O)[nH]c3ccc(I)cc23)[nH]c2ccccc12
[20]
  IC50: 5 nM

## COc1c(C=O)c(O)cc2c1C(=O)c1ccccc1C2=O [DAMNACANTHAL]
[21]
  IC50: 620 nM

## CCn1cnc2c(N)nc(N(c3cccc(Cl)c3)[C@@H]3CCCC[C@@H]3N)nc21 (relative stereo)
[22]
  IC50: > 10000 nM
[3]
  IC50: 6100 nM

## CCN(CC)CCCCNc1ncc2cc(-c3cc(OC)cc(OC)c3)c(NC(=O)NC(C)(C)C)nc2n1 [PD-173074]
[17]
  IC50: 17600 nM

## CC(=O)O.O=C(O)c1ccc2c3c1cccc3c(=O)n1c3ccccc3nc21
[23]
  IC50: > 26700 nM
[24]
  IC50: > 10 µg/mL
[25]
  IC50: 10 µg/mL
[26]
  IC50: > 26700 nM
[27]
  IC50: 26700 nM

## O=C1C=CC(=O)c2ccccc21 [NAPHTHOQUINONE]
[28]
  IC50: 380 nM

## Cn1c2ccccc2c2c3c(c4c5ccccc5n(CCC#N)c4c21)CNC3=O [GO-6976]
[3]
  IC50: 2 nM
[29]
  IC50: 2 nM

## O=C1Nc2ccccc2/C1=C1/Nc2ccccc2/C1=N\OCC(O)CO (configuration not stated)
[30]
  IC50: 430 nM
[31]
  IC50: 210 nM
